# Experimental data published in patent US20220387375A1, “TRPV1 ACTIVATION-MODULATING COMPLEX MIXTURES OF CANNABINOIDS AND/OR TERPENES” (GBS Global Biopharma, Inc., priority 2018, published 2022).
# What was measured:
# Assay type in all cases: cell-based
# [1] = biological target: T1, TRPV1 (Rattus norvegicus, UniProt O35433); assay: Bulk calcium assay (Fluo-4) in HEK-TRPV1 overexpressing cells; details: for mean maximal Ca^2+ signal RFU achieved 0-180 s (SD), TRPV1: bulk calcium assay; for calcium fluxes: dosing concentrations of 30-50 μM; for initiation of a calcium flux: single dose 10 μM, 1 mM external Ca2+
# T1 construct: FLAG; expressed in transfected cells
# T1 sequence (O35433 whole entry): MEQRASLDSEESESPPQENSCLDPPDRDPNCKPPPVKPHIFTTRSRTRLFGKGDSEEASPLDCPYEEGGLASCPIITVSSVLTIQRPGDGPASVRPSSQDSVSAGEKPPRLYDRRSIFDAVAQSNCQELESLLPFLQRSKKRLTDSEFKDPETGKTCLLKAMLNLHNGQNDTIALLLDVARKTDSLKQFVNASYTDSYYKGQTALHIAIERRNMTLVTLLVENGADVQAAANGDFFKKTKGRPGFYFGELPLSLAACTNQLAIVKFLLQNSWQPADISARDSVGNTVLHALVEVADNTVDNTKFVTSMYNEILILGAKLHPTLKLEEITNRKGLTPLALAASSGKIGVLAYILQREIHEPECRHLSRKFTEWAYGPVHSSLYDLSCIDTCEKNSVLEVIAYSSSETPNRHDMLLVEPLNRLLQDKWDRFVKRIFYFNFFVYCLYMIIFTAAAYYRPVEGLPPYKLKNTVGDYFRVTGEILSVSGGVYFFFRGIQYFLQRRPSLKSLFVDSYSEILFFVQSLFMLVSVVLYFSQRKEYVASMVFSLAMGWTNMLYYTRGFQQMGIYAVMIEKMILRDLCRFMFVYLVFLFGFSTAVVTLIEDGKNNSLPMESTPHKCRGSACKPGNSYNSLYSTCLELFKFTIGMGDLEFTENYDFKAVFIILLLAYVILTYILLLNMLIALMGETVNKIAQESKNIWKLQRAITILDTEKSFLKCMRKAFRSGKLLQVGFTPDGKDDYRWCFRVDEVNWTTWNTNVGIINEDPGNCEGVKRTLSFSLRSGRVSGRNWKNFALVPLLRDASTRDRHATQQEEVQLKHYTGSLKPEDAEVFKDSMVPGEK
# Method: (§1) Cells were washed and incubated with 0.2 micromolar Fluo-4 for 30 minutes at 37° C. in a standard modified Ringer's solution of the following composition (in mM): NaCl 145, KCl 2.8, CsCl 10, CaCl2 10, MgCl2 2, glucose 10, Hepes·NaOH 10, pH 7.4, 330 mOsm. Cells were transferred to 96-well plates at 50,000 cells/well and stimulated as indicated. Calcium signals were acquired using a Flexstation 3 (Molecular Devices, Sunnydale, USA). Data was analyzed using SoftMax® Pro 5 (Molecular Devices). Where indicated, nomically calcium-free external conditions were achieved by the preparation of 0 mM CaCl2 Ringer solution containing 1 mM EGTA.
# The cell culture system described in U.S. patent application Ser. No. 15/986,316 was used to test the TRPV1-mediated calcium response to various terpenes. The HEK293 cell line was stably transfected with the pcDNA6TR (Invitrogen, CA) plasmid (encoding the tetracycline-sensitive TREx repressor protein), and was maintained in DMEM+10% fetal bovine serum (inactivated at 55° C. for 1 h)+2 mM glutamine in humidified 5% CO2 atmosphere at 37° C. Selection pressure on the TRex 293 cells was maintained by continuous culture in 10 μg/ml Blasticidin (Sigma, St Louis, Mo.).
# For production of TRex HEK293 cells with inducible expression of TRPV1, parental cells were electroporated with the rat TRPV1 cDNA in the pcDNA4TO vector and clonal cell lines were selected by limiting dilution in the presence of 400 μg/ml zeocin (Invitrogen, CA). TRPV1 expression was induced using 1 μg/ml tetracycline for 16 h at 37° C. Stable lines were screened for inducible protein expression using anti-FLAG Western blot, and inducible expression was confirmed.
# Calcium responses mediated by TRPV1 were tested by calcium assay in the cell culture system. Cells were washed and incubated with 0.2 μM fluo-4 acetoxymethyl ester (“Fluo-4”) for 30 minutes at 37° C. in a standard modified Ringer's solution of the following composition (in mM): NaCl 145, KCl2.8, CsCl10, CaCl2 10, MgCl2 2, glucose 10, Hepes·NaOH 10, pH 7.4, 330 mOsm. Cells were transferred to 96-well plates at 50,000 cells/well and stimulated as indicated. The terpenes used were alpha-bisabool, alpha-pinene, myrcene, camphene, linalool, ocimene, humulene, beta-caryophyllene, beta-pinene, limonene, and nerolidol. The terpenes were diluted in DMSO and added to the wells to a final concentration of 10 μM. Vehicle (DMSO) alone was run as a negative control and subtracted from the terpene traces. Calcium signals were acquired using a Flexstation 3 (Molecular Devices, Sunnydale, USA). Data was analyzed using SoftMax® Pro 5 (Molecular Devices).
# (§2) Calcium responses mediated by TRPA1, TRPM8, TRPV2, and TRPV1 were tested by calcium assay in the cell culture system. Cells were washed and incubated with 0.2 μM fluo-4 acetoxymethyl ester (“Fluo-4”) for 30 minutes at 37° C. in a standard modified Ringer's solution of the following composition (in mM): NaCl 145, KCl 2.8, CsCl 10, CaCl2 10, MgCl2 2, glucose 10, Hepes·NaOH 10, pH 7.4, 330 mOsm. Cells were transferred to 96-well plates at 50,000 cells/well and stimulated with 10 μM myrcene diluted in DMSO. Vehicle (DMSO) was used as a negative control. Vehicle traces were subtracted from the myrcene traces for each cell line.
# As shown in FIGS. 16A-H, a variety of cannabinoids were capable of initiating Ca^2+ fluxes in HEK-TRPV1 overexpressing cells, except for cannabigerol and cannabinol. Comparative responses to a single dose (10 μM concentration) of a variety of cannabinoids were made in the presence of 1 mM external Ca^2+, which are population-based, or bulk Ca^2+, measurements with each trace representing averaged triplicates of 100,000 cells per sample. […] For each of the cannabinoid compounds, dose responses at the population level were performed. […] The lower limit of detectable calcium responses in this system varied from 10-100 nM (CBDV, CBGA) to 1-10 μM.
# [2] = biological target: T2, TRPM8 (Homo sapiens, UniProt Q7Z2W7); assay: Bulk calcium assay (Fluo-4) in HEK cells overexpressing TRPM8
# T2 construct: host or cells: HEK TRex293
# T2 sequence (Q7Z2W7 whole entry): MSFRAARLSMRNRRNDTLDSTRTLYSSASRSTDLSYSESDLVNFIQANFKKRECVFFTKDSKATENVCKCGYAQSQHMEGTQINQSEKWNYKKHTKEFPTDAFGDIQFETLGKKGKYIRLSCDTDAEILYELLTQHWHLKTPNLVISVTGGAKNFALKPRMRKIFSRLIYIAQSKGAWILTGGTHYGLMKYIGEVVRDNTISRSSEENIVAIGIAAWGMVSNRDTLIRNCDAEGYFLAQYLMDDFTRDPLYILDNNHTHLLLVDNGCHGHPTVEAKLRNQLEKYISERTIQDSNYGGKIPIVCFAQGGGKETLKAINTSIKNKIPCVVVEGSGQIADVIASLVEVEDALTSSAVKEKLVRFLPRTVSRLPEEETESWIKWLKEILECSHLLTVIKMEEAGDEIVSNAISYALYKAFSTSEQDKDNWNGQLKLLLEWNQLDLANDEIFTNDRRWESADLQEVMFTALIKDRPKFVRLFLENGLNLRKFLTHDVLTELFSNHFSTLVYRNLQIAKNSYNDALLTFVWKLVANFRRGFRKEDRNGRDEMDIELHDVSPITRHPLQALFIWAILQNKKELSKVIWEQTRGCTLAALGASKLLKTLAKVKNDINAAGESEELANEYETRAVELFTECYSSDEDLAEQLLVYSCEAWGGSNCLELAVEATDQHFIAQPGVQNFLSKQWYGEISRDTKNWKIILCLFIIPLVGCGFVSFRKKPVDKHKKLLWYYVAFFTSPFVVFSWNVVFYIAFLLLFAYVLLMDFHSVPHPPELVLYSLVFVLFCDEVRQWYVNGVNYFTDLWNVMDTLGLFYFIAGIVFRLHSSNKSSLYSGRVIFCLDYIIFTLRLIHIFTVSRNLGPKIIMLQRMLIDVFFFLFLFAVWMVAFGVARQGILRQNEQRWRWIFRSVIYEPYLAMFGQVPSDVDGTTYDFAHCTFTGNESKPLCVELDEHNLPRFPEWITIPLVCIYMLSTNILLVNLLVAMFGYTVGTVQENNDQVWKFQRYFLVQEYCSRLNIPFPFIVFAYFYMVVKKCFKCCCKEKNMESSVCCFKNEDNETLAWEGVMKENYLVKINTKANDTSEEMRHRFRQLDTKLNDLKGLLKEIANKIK
# Method: (§3) HEK TRexTRPV1 were cultured in DMEM, 10% Fetal Bovine Serum, 2 mM Lglutamine, 10 μg/ml Blasticidin (Calbiochem, San Diego Calif.), 400 μg/ml Zeocin (InvivoGen, San Diego Calif.), where indicated transgene expression was induced using 1 μg/ml Tetracycline for 16-24 hrs. Unless otherwise indicated, basal expression of TRPV1 without induction was sufficient for these studies, and comparisons were made to untransfected HEK where needed. HEKTRex293 over-expressing human TRPV2, human TRPA1 and human TRPM8 were obtained from SB Drug Discovery (Glasgow, Scotland) and cultured as described above. The cannabinoids and terpenes were assayed in HEK cells that have been transfected with the TRPV1 ion channel protein. These cells are called HEK293-V1 cells.
# as §1, §2
# (§4) The potential for different cannabinoids to target specific TRP channels, or to co-target more than one channel type, are of potential therapeutic options for the treatment and management of pain. Comparison of the impacts of a variety of cannabinoid on overexpression systems for TRPV2, TRPM8, and TRPA1 were performed in a side-by-side fashion, under bulk calcium assays where the measurements with each trace representing averaged triplicates of 100,000 cells per sample. As shown in FIGS. 41-43 and summarized in Table 3, there are clear differences in responsiveness between cannabinoids at a single channel type than between channel types to a given cannabinoid.
# [3] = biological target: T3, TRPA1 (Homo sapiens, UniProt O75762); assay: Bulk calcium assay (Fluo-4) in HEK cells overexpressing TRPA1
# T3 construct: host or cells: HEK TRex293
# T3 sequence (O75762 whole entry): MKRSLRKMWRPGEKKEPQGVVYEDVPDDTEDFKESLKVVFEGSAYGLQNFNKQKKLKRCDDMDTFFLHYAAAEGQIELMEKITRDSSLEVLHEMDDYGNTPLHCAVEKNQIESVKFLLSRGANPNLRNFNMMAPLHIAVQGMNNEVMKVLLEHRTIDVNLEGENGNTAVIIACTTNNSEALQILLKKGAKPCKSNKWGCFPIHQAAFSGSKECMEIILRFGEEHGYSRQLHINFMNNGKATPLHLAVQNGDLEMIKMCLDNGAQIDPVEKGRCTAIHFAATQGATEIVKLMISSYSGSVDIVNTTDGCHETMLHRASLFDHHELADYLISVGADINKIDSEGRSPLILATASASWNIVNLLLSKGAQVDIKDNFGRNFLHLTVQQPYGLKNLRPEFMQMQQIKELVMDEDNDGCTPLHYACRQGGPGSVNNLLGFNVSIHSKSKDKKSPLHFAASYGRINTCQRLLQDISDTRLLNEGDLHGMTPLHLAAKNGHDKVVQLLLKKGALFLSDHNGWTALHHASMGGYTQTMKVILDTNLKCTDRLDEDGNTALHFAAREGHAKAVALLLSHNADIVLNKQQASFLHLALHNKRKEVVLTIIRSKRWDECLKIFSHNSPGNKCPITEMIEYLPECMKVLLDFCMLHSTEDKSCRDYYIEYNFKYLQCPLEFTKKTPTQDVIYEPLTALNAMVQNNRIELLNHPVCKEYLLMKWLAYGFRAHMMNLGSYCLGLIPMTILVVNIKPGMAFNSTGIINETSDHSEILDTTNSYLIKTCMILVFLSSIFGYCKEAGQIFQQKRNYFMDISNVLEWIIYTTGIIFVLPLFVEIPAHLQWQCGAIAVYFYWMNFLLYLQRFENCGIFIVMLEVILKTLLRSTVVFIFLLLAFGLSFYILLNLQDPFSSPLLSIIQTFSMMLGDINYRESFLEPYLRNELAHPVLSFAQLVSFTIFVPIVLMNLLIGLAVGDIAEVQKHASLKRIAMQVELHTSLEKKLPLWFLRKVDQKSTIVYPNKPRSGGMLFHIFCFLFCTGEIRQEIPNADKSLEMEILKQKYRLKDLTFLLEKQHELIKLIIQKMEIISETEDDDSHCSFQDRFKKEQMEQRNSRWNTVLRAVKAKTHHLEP
# Method: as §3, §1, §2, §4
SMILES,"mean maximal Ca^2+ signal RFU achieved 0-180 s (SD), TRPV1 [1]","mean maximal Ca^2+ signal RFU achieved 0-180 s (SD), TRM8 [2]","mean maximal Ca^2+ signal RFU achieved 0-180 s (SD), TRPA1 [3]",calcium fluxes [1],initiation of a calcium flux [1]
"C=C(C)[C@@H]1CCC(C)=C[C@H]1c1c(O)cc(CCCCC)cc1O [CBD, Cannabidiol]",11.88 (0.23) RFU,1.12 (0.02) RFU,1.28 (0.03) RFU,,
"CCCCCc1cc(O)c2c(c1)OC(C)(C)c1ccc(C)cc1-2 [CBN, Cannabinol]",0.89 (0.08) RFU,0.09 (0.01) RFU,10.97 (0.4) RFU,small and transient calcium transient fluxes,did not initiate a calcium flux
"CCCCCc1cc(O)c(C/C=C(\C)CCC=C(C)C)c(O)c1 [CBG, Cannabigerol]",0.41 (0.04) RFU,2.25 (0.46) RFU,10.22 (1.29) RFU,small calcium fluxes,did not initiate a calcium flux
"C=C(C)[C@@H]1CCC(C)=C[C@H]1c1c(O)cc(CCC)cc1O [CBDV, Cannabidivarin]",6.51 (0.07) RFU,3.89 (0.05) RFU,16.17 (2.68) RFU,,
